The values below come from patent US8999956B2, “N-[(het)arylalkyl)] pyrazole(thio)carboxamides and their heterosubstituted analogues” (Bayer Intellectual Property GmbH, priority 2010, dated 2015).

The test system of series [1] is Pyrenophora teres. Description: In vivo preventive test on Pyrenophora teres (barley). Conditions: 500 ppm of active ingredient, evaluated 7-9 days after inoculation. The procedure, abridged:
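Preventive test: young barley plants received a water-diluted spray of compound formulated with DMF solvent plus alkylaryl polyglycol ether emulsifier, at the stated rate. Inoculation with an aqueous spore suspension of Pyrenophora teres followed one day after spraying.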

For series [2], the system named is Venturia inaequalis. Kind of series: In vivo preventive test on Venturia inaequalis (apple scab). Conditions: 100 ppm of active ingredient, evaluated 10 days after inoculation. The procedure, abridged: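 Young plants sprayed preventively at the stated application rate with compound dissolved in acetone/N,N-dimethylacetamide plus alkylaryl polyglycol ether emulsifier and diluted with water to the desired concentration.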

Series [3] concerns Alternaria solani. Kind of series: In vivo preventive test on Alternaria solani (tomato). Conditions: 500 ppm of active ingredient, evaluated 7 days after inoculation. The gist of the method: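 Preventive set-up: Alternaria solani spores, as aqueous suspension, applied to young plants one day after spraying. Spray contained active compound formulated with N,N-dimethylformamide and emulsifier, water-diluted to the desired application rate.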

Series [4] has as its system Blumeria graminis fsp. hordei. Description: In vivo preventive test on Blumeria graminis (barley). Conditions: 500 ppm of active ingredient, evaluated 7 days after inoculation. As for the experimental part:
(§1) Solvent: 49 parts by weight of N,N-dimethylacetamide Emulsifier: 1 part by weight of alkylaryl polyglycol ether To produce a suitable preparation of active compound, 1 part by weight of active compound or active compound combination is mixed with the stated amounts of solvent and emulsifier, and the concentrate is diluted with water to the desired concentration. To test for preventive activity, young plants are sprayed with the preparation of active compound or active compound combination at the stated rate of application. After the spray coating has been dried, the plants are dusted with spores of Blumeria graminis fsp. hordei.

Series [5] deals with Aspergillus parasiticus. Description: microbe, parasite or virus in culture. Format: cell-based.
The subject of series [6] is Septoria tritici. Kind of series: In vivo preventive test on Septoria tritici (wheat). Conditions: 500 ppm of active ingredient, evaluated 21 days after inoculation. The gist of the method:
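Compound formulated in N,N-dimethylacetamide with alkylaryl polyglycol ether emulsifier and diluted in water to the stated rate. Young wheat plants sprayed preventively; after the deposit dried, they were inoculated with a Septoria tritici spore suspension.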

Series [7] concerns Puccinia triticina. Kind of series: In vivo preventive test on Puccinia triticina (wheat).
Series [8] concerns Cochliobolus miyabeanus. Description: In vivo protective test on Cochliobolus miyabeanus (rice). Conditions: Table M, 250 ppm of active ingredient, evaluated 4 days after inoculation.
For series [9], the system named is Sphaerotheca fuliginea. Kind of series: In vivo preventive test on Sphaerotheca fuliginea (cucumber). Conditions: 500 ppm of active ingredient, evaluated 7 days after inoculation. The procedure, abridged:
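Young cucumber plants sprayed with compound (in DMF with alkylarylpolyglycolether emulsifier, diluted in water) at the stated application rate. Inoculated one day later with aqueous Sphaerotheca fuliginea spore suspension. Plants then held in greenhouse at approximately 23° C and approximately 70% relative humidity.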

Series [10] concerns aflatoxines produced by Aspergillus parasiticus. Kind of series: microbe, parasite or virus in culture. Format: cell-based.
A short description of series [11]: log P by HPLC on reversed-phase column (EEC Directive 79/831 Annex V.A8). It is filed as physicochemical. As for the experimental part: In table 1, the log P values were determined in accordance with EEC Directive 79/831 Annex V.A8 by HPLC (High Performance Liquid Chromatography) on a reversed-phase column (C18), using the method described below: Temperature: 40° C.; […]

Series [12] relates to Fusarium nivale (var. majus). Kind of series: In vivo preventive test on Fusarium nivale (wheat). Conditions: 500 ppm of active ingredient, evaluated 5 days after inoculation. As to the method:
as §1, with “slightly injured by using a sandblast and afterwards they are sprayed” for “dusted”, “a conidia suspension” for “spores”, “Fusarium nivale (var. majus).” for “Blumeria graminis fsp. hordei.”

In series [13] the test system is Phakopsora pachyrhizi. Kind of series: In vivo protective test on Phakopsora pachyrhizi (soybeans). Conditions: Table N, 250 ppm of active ingredient, evaluated 11 days after inoculation.
In series [14] the test system is Leptosphaeria nodorum. Kind of series: In vivo preventive test on Leptosphaeria nodorum (wheat). Conditions: 500 ppm of active ingredient, evaluated 7-9 days after inoculation. The procedure, abridged:
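Plants were inoculated with aqueous L. nodorum spores one day after a protective spray. The spray contained the compound at the stated rate, as a water-diluted concentrate in N,N-dimethylacetamide plus alkylaryl polyglycol ether emulsifier.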

The test system of series [15] is Botrytis cinerea. Description: In vivo preventive test on Botrytis cinerea (beans). The gist of the method: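 Young bean plants sprayed preventively with compound in acetone/dimethylacetamide/emulsifier diluted in water; after drying, each leaf inoculated with 2 agar pieces bearing Botrytis cinerea. Kept dark at 20° C, 100% humidity; lesion size scored at 2 days as % efficacy (0% = untreated, 100% = no disease).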

The test system of series [16] is Uromyces appendiculatus. Description: In vivo preventive test on Uromyces appendiculatus (beans). Conditions: 100 ppm of active ingredient, evaluated 10 days after inoculation. As for the experimental part: Solvent: 24.5 parts by weight of acetone • 24.5 parts by weight of N,N-dimethylacetamide Emulsifier: 1 part by weight of alkylaryl polyglycol ether To produce a suitable preparation of active compound, 1 part by weight of active compound is mixed with the stated amounts of solvent and emulsifier, and the concentrate is diluted with water to the desired concentration. To test for preventive activity, young plants are sprayed with the preparation of active compound at the stated rate of application.

The mark [17] stands for this setting: Table K, 500 ppm of active ingredient, evaluated 8 days after inoculation.
The mark [18] stands for this setting: Table L, 500 ppm of active ingredient, lesion size 2 days after inoculation.
Setting [19] is: 500 ppm of active ingredient, lesion size 2 days after inoculation.

Each structure is given as a SMILES string. Read-outs that look alike come from different tables or passages of the source.

With `CC(CC(C)(C)C)C1CCCCC1NC(=O)c1c(C(F)F)nn(C)c1F` (single isomer, unassigned) [Example 360], the Efficacy in series [1] came out at 95%; in [2], 100%; in series [3], 95%; in series [4], 100%; in series [6] it was 90%; in series [7] (setting [17]), 100%. For the same compound, the Efficacy is on record as 94% in [8], 100% in [9] and 86% in [12]. The “% Inhibition of fungal growth at 50 μM” value in series [5] (50 µM) is 96%. In addition, in series [10], the “% Inhibition of Aflatoxin at 50 μM” value was determined as 100%. In addition, the logP in series [11] was found to be 4.85 isomer A.
Turning to `Cn1nc(C(F)F)c(C(=O)NC2CCCCC2CCC(C)(C)C)c1F` (single isomer, unassigned) [Example 358], the Efficacy in series [1] came out at 100%; in [2], 100%; in [3], 100%; in [4] it was 100%; in series [6], 80%; in series [7] (setting [17]) it was 100%. Moreover, the values for the Efficacy in series [9], in [12] and in [13] were 100%, 100% and 95%, respectively. The compound also came in with a logP in series [11] of 4.51 isomer B.
As to `CC(C)CCC1CCCCC1NC(=O)c1c(C(F)F)nn(C)c1F` (centres unmarked) [Example 333], the Efficacy in series [1] amounted to 100%; in series [2] it was 99%; in series [3], 100%; in series [4], 100%; in series [6], 100%; in series [7] (setting [17]), 90%. Besides, the Efficacy in series [9] stood at 100%; in series [14], 80%; in series [12] it was 100%; in series [13], 97%. In addition, the “% Inhibition of fungal growth at 50 μM” value in series [5] came to 92%. Further, in series [10], the “% Inhibition of Aflatoxin at 50 μM” value amounted to 100%. For the same compound, the logP in [11] is reported as 4.22.
`Cn1nc(C(F)F)c(C(=O)N(CC2CCCCC2c2ccccc2Cl)C2CC2)c1F` (centres unmarked) [Example 241]: the Efficacy in [1], in series [2], in series [3], in series [6], in series [7] (setting [17]) and in series [9] was 100% in each case. Also, the Efficacy in series [15] (setting [18]) is given as 99%; in series [16] it was 100%; in [14], 80%; in series [13], 99%. Besides, in series [5], the “% Inhibition of fungal growth at 50 μM” value came to 97%. Moreover, the “% Inhibition of Aflatoxin at 50 μM” value in [10] was 100%. In series [11], this compound gave a logP of 4.67.
As for `CC(C)CC(C)C1CCCCC1NC(=O)c1c(C(F)F)nn(C)c1Cl` (single isomer, unassigned) [Example 334], the Efficacy in series [2] was 100%; in [4], 90%; in [6], 100%; in [16], 100%; in [12] it was 93%; in [13], 100%. In addition, in series [5] (50 µM), the “% Inhibition of fungal growth at 50 μM” value was found to be 90%. The “% Inhibition of Aflatoxin at 50 μM” value in [10] stood at 100%. Also, the logP in series [11] is 4.75 isomer A.
A word on the chromatographic logP: it is lipophilicity estimated from chromatographic retention. A low value points to lower lipophilicity. For `Cn1nc(C(F)F)c(C(=O)NC2CCCC(CCC(C)(C)C)C2)c1F` (centres unmarked) [Example 324, 3-(difluoromethyl)-N-[3-(3,3-dimethylbutyl)cyclohexyl]-5-fluoro-1-methyl-1H-pyrazole-4-carboxamide], the Efficacy was found to be 94% in series [1], 90% in [3], 97% in series [8] and 100% in series [12]. In addition, in series [7] (Puccinia triticina, 192 h, Table K, 500 ppm of active ingredient, evaluated 8 days after inoculation, read-out: Efficacy), the pest or weed control at 500 ppm was 100%. Besides, the chromatographic logP in series [11] (log P) and in series [11] (logP) was 4.8 in each case.
Turning to `Cn1nc(C(F)F)c(C(=O)N(CC2CCCCC2c2ccc(Cl)cc2Cl)C2CC2)c1F` (centres unmarked) [Example 242], the Efficacy in series [1] is recorded as 100%; in series [2], 100%; in series [3] it was 100%; in series [7] (setting [17]), 100%; in series [9], 100%; in series [15] (setting [18]), 95%. Besides, the Efficacy in [16] is on record as 100%; in series [13], 99%. Further, the “% Inhibition of fungal growth at 50 μM” value in series [5] came to 100%. The “% Inhibition of Aflatoxin at 50 μM” value in [10] was 100%. Also, the logP in [11] amounted to 5.31.
As for `Cn1nc(C(F)F)c(C(=O)NC2CCCCC2CC[Si](C)(C)C)c1F` (centres unmarked) [Example 353], the Efficacy came to 95% in [1]; 99% in [2]; 95% in [3]; 90% in series [4]; 80% in series [6]; 70% in series [7] (setting [17]). Besides, the Efficacy came to 100% in [12] and 85% in series [13]. Further, the “% Inhibition of fungal growth at 50 μM” value in series [5] came out at 85%. Also, the “% Inhibition of Aflatoxin at 50 μM” value in series [10] worked out at 99%. In series [11], this compound displayed a logP of 4.70.
Regarding `Cn1nc(C(F)F)c(C(=O)N(C2CC2)C2CCCC(c3ccccc3)C2)c1F` (centres unmarked) [Example 256], the Efficacy in [1] is listed as 100%; in [2], 100%; in [3], 93%; in series [6], 100%; in series [7] (500 ppm of active ingredient, evaluated 8 days after inoculation), “at least 95%”; in series [7] (Table K5, dose 500 ppm, comparison with des-fluoro analogues) it was 95%. Moreover, the Efficacy is 95% in series [7] (setting [17]); “at least 90%” in [15] (setting [19]); 93% in series [15] (Table L5, dose 500 ppm, comparison with des-fluoro analogues); 93% in series [15] (setting [18]); 100% in series [16]; 95% in series [14]. The results for the Efficacy in [12] and in series [13] were 100% and 85%, respectively. Besides, the “% Inhibition of fungal growth at 50 μM” value in series [5] is 79%. Further, the “% Inhibition of Aflatoxin at 50 μM” value in [10] was 96%. Further, the logP in [11] is given as 4.01.
As for `Cn1nc(C(F)F)c(C(=O)N(CC2CCCCC2c2ccccc2)C2CC2)c1F` (centres unmarked) [Example 240], the Efficacy in [1] was determined as 100%; in series [2] it was 100%; in series [3], 100%; in [4], 100%; in [6] it was 100%; in series [7] (setting [17]) it was 95%. Besides, the Efficacy entry is “at least 95%” in [15] (setting [19]); 95% in series [15] (Table L2, dose 500 ppm, comparison with des-fluoro analogues); 95% in series [15] (setting [18]); 100% in series [16]; 70% in series [14]; 71% in series [12]. This compound displayed an Efficacy in series [13] of 85%. In addition, the “% Inhibition of fungal growth at 50 μM” value in series [5] is 98%. In addition, the “% Inhibition of Aflatoxin at 50 μM” value in [10] is 100%. The same compound registered a logP in [11] of 4.31.
